What was measured:
[1] = Stability in solution of psilocin free base versus benzoate salt; details: prone to oxidation
[2] = Solubility testing of psilocin benzoate salt in potential intravenous vehicles
Protocol: Solubility of the psilocin benzoate salt was assessed in a range of potential intravenous vehicles. […] Each vehicle was degassed by sonication prior to use.
The pH of each formulation was measured and samples for assay analysis from each formulation were taken following preparation and then again following 6 hours bench top storage at ambient temperature.

CN(C)CCc1c[nH]c2cccc(O)c12 [Psilocin]
stability in solution [1]: highly unstable in solution

CN(C)CCc1c[nH]c2cccc(O)c12.O=C(O)c1ccccc1 [psilocin benzoate]
stability in solution [1]: more stable | solubility under saturating conditions ([2]; all of the vehicles on test): partially soluble | limit of solubility ([2]; in aqueous solution): approximately 4 mg/ml

Source: patent US20250073207A1, “PSILOCIN BENZOATE FORMULATION FOR I[…]” (Eleusis Therapeutics US, Inc., priority 2022, published 2025)
